Results taken from patent publication US9133142B2, “Salts or co-crystals of 3-(3-dimethylamino-1-ethyl-2-methyl-propyl)-phenol” (Gruenenthal GmbH, priority 2010, dated 2015).
Counter-ions that a name gives are not always drawn.

Experiments:
[1] = Thermogravimetric analysis (TGA) of salts or cocrystals; format: physicochemical; conditions: for TGA no weight loss up to: nitrogen flow, heating rate of 10° C./min
Method: Thermogravimetric investigations were performed with a Mettler-Toledo TGA/SDTA851.
Unless otherwise specified, the samples were weighed in a aluminium crucible and measured in nitrogen flow. Generally TGA investigations were performed in a temperature range of 25 to about 200° C. or resp. 350° C. with a heating rate of 10° C./min.

[2] = cited from earlier work
[3] = clinical studies; cited from earlier work
[4] = target: recombinantly produced μ-opioid receptor (Homo sapiens, UniProt P35372); conditions: relative to morphine; cited from earlier work
Sequence of recombinantly produced μ-opioid receptor (P35372 whole entry): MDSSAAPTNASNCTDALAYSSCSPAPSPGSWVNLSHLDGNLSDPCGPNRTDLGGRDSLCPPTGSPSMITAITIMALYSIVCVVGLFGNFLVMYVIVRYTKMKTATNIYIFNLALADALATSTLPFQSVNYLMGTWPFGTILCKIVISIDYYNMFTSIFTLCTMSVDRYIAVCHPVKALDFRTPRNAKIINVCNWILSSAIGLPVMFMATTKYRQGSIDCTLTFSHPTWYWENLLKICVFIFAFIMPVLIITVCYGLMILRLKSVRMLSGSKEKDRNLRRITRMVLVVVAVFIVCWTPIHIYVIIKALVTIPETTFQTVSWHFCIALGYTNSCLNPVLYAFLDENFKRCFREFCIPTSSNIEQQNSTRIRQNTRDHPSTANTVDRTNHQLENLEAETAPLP

## CC[C@@H](c1cccc(O)c1)[C@@H](C)CN(C)C.CC[C@@H](c1cccc(O)c1)[C@@H](C)CN(C)C.O=C(O[C@H](C(=O)O)[C@H](OC(=O)c1ccccc1)C(=O)O)c1ccccc1 [Example A-1, Hemi Salt or Hemi Cocrystal of (2S,3S)-Di-benzoyl Tartaric Acid and Tapentadol]
[1]
  TGA no weight loss up to: to 140 °C
[1]; listed as A-2
  TGA no weight loss up to: to 160 °C
[1]; listed as A-3
  TGA no weight loss up to: to 160 °C

## CC[C@@H](c1cccc(O)c1)[C@@H](C)CN(C)C.O=C(O)CCCCCCCCC(=O)O [Example B-1, Salt or Cocrystal of Sebacid Acid and Tapentadol]
[1]
  TGA no weight loss up to: to 140 °C
[1]; listed as B-2
  TGA no weight loss up to: to 105 °C
[1]; listed as B-3
  TGA no weight loss up to: to 145 °C

## CC[C@@H](c1cccc(O)c1)[C@@H](C)CN(C)C.O=C(O)c1ccc2ccccc2c1O [Example C-1, Salt or Cocrystal of 1-hydroxy-2-naphthoic Acid and Tapentadol]
[1]
  TGA no weight loss up to: to 125 °C
[1]; listed as C-2
  TGA no weight loss up to: to 130 °C

## CCC(c1cccc(O)c1)C(C)CN(C)C.O=C(O)CC(=O)O (centres unmarked) [Example E-1, Salt or Cocrystal of Malonic Acid and Tapentadol]
[1]
  TGA no weight loss up to: to 115 °C

## CC[C@@H](c1cccc(O)c1)[C@@H](C)CN(C)C [Example F-1, Salt or Cocrystal of Hydrobromic Acid and Tapentadol]
[1]
  TGA no weight loss up to: to 195 °C

## CC[C@@H](c1cccc(O)c1)[C@@H](C)CN(C)C.O=C(O)c1cccnc1 [Example G-1, Salt or Cocrystal of Nicotinic Acid and Tapentadol]
[1]; 28° C.-171° C.
  TGA weight loss: −6.4%

## CC[C@@H](c1cccc(O)c1)[C@@H](C)CN(C)C.O=C(O)c1cccnc1 [Example G-2, Salt or Cocrystal of Nicotinic Acid and Tapentadol]
[1]
  TGA no weight loss up to: to 135 °C
[1]; listed as G-3
  TGA no weight loss up to: to 150 °C

## CC[C@@H](c1cccc(O)c1)[C@@H](C)CN(C)C.CC[C@@H](c1cccc(O)c1)[C@@H](C)CN(C)C.O=C(O)/C=C/C(=O)O [Example I-1, Hemi Salt or Hemi Cocrystal of Fumaric Acid and Tapentadol]
[1]
  TGA no weight loss up to: to 131 °C
[1]; listed as I-2
  TGA no weight loss up to: to 130 °C
[1]; listed as I-3
  TGA no weight loss up to: to 130 °C

## CCC(c1cccc(O)c1)C(C)CN(C)C.O=C1NS(=O)(=O)c2ccccc21 (centres unmarked) [Example J-1, Salt or Cocrystal of Saccharin and Tapentadol]
[1]
  TGA no weight loss up to: to 105 °C

## CC[C@@H](c1cccc(O)c1)[C@@H](C)CN(C)C.O=C(O)c1cccnc1 [Example b2-1b, Salt or Cocrystal of Tapentadol and Nicotinic Acid]
[1]; range: 27 to 171° C.
  weight loss (TGA): −5.9%

## CC[C@@H](c1cccc(O)c1)[C@@H](C)CN(C)C.O=C(O)c1cccnc1 [Example b2-1c, Salt or Cocrystal of Tapentadol and Nicotinic Acid]
[1]; 29.76-135.97° C.
  TG weight change: −0.19%
[1]; range: 25 to 148° C.
  weight loss (TGA): < 0.3%

## CC[C@@H](c1cccc(O)c1)[C@@H](C)CN(C)C [hydrogen chloride salt of 3-(3-dimethylamino-1-ethyl-2-methyl-propyl)-phenol]
[2]
  solubility in water and aqueous media: high solubility

## CC[C@@H](c1cccc(O)c1)[C@@H](C)CN(C)C [tapentadol, (1R,2R)-3-(3-dimethylamino-1-ethyl-2-methyl-propyl)-phenol]
[3]
  pain-alleviating action relative to morphine: two to three times less
[4]
  affinity to the recombinantly produced μ-opioid receptor, times less than that of morphine: 18 times

## Salt or Cocrystal of Embonic Acid and Tapentadol [Example D-1]
[1]; 90° C.-157° C.
  TGA weight loss: −7.1%

## Salt or Cocrystal of Embonic Acid and Tapentadol [Example D-2]
[1]
  TGA no weight loss up to: to 170 °C
[1]; listed as D-3
  TGA no weight loss up to: to 160 °C

## Salt or Cocrystal of Nitric Acid and Tapentadol [Example H-1]
[1]
  TGA no weight loss up to: to 170 °C

## Salt or Cocrystal of Tapentadol and Embonic Acid [b1-4-3]
[1]; range 31 to 171° C.
  weight loss (TGA): < 0.1%

## Salt or Cocrystal of Tapentadol and Embonic Acid [b1-4-4]
[1]; range 53 to 167° C.
  weight loss (TGA): −5.7%
